In ChEMBL document CHEMBL3091402, “Identification of clinical candidates from the benzazepine class of histamine H3 receptor antagonists” (Bioorg Med Chem Lett, 2013):
Activity calls are given as the source filed them. The calls are words filed in the database; no cut-off is given here.

How the values were obtained:
Liver microsome [1] = assay: Intrinsic clearance in human liver microsomes; assay type: ADME
[2] = Time dependent inhibition of CYP450 (unknown origin); assay type: ADME, Homo sapiens
hERG (KCNH2) = hERG (KCNH2) (Homo sapiens, UniProt Q12809); assay: Inhibition of human ERG at 10 uM by patch clamp experiment
Histamine H4 receptor = Histamine H4 receptor (Homo sapiens, UniProt Q9H3N8); assay: Binding affinity to human histamine H4 receptor
Histamine H1 receptor = Histamine H1 receptor (Homo sapiens, UniProt P35367); assay: Binding affinity to human histamine H1 receptor
Histamine H2 receptor = Histamine H2 receptor (Homo sapiens, UniProt P25021); assay: Binding affinity to human histamine H2 receptor
Histamine H3 receptor [3] = biological target: T1, Histamine H3 receptor (Rattus norvegicus, UniProt Q9QYN8); assay: Displacement of [3H]-R-alpha-ethylhistamine from rat histamine H3 receptor expressed in HEK293 cells after 45 mins by liquid scintillation spectrometry; assay type: cell-based
Liver microsome [4] = assay: Intrinsic clearance in rat liver microsomes; assay type: ADME
Rattus norvegicus [5] = assay: Reversal of RAMH-induced dipsogenia in po dosed Lister Hooded rat treated 2 hrs before RAMH challenge measured after 1 hr; assay type: functional
Blood = assay: Drug level in rat blood at 3 mg/kg, po; assay type: ADME, organism-based; set-up: dose 3 mg/kg, route oral; conditions: in vivo, read-out: Drug uptake
Rattus norvegicus [6] = assay: Ex vivo binding affinity to histamine H3 receptor in rat cerebral cortex using [3H]-R-alpha-ethylhistamine at 3 mg/kg, po after 3 hrs by HPLC analysis; assay type: functional
Rattus norvegicus [7] = assay: Ex vivo binding affinity to histamine H3 receptor in po dosed rat cerebral cortex using [3H]-R-alpha-ethylhistamine after 2 hrs by HPLC analysis; assay type: functional
Histamine H3 receptor [8] = biological target: T1, Histamine H3 receptor; assay: Displacement of [3H]-R-alpha-ethylhistamine from histamine H3 receptor in rat cerebral cortical tissue membranes after 45 mins by liquid scintillation spectrometry
Histamine H3 receptor [9] = biological target: T2, Histamine H3 receptor (Homo sapiens, UniProt Q9Y5N1); assay: Antagonist activity at human histamine H3 receptor expressed in CHOK1 cells assessed as inhibition of GTPgammaS binding; assay type: functional, cell-based, CHO-K1
Rattus norvegicus [10] = assay: Cognitive enhancing effect in Lister Hooded rat assessed as increase of time spent exploring novel versus familiar objects in T2 at 0.3 to 1 mg/kg, po bid; assay type: functional, organism-based
Rattus norvegicus [11] = assay: Cognitive enhancing effect against scopolamine-induced memory deficit in Wistar rat assessed as passive avoidance response at 3 mg/kg, po after 24 hrs; assay type: functional, organism-based; set-up: dose 3 mg/kg
Rattus norvegicus [12] = assay: Cognitive enhancing effect against scopolamine-induced memory deficit in po dosed Wistar rat assessed as passive avoidance response after 24 hrs; assay type: functional, organism-based
[13] = Oral bioavailability in cynomolgus monkey; assay type: ADME, organism-based, Macaca fascicularis; conditions: in vivo
[14] = Terminal half life in po dosed cynomolgus monkey; assay type: ADME, organism-based, Macaca fascicularis; conditions: in vivo, read-out: beta t1/2 (converted)
[15] = Tmax in po dosed cynomolgus monkey; assay type: ADME, organism-based, Macaca fascicularis; conditions: in vivo
Rattus norvegicus [16] = species on record: Rattus norvegicus; assay: Ex vivo receptor occupancy of histamine H3 receptor in rat brain; assay type: functional, organism-based
[17] = Cmax in po dosed cynomolgus monkey; assay type: ADME, organism-based, Macaca fascicularis; set-up: route oral; conditions: in vivo
[18] = Terminal half life in iv dosed cynomolgus monkey; assay type: ADME, organism-based, Macaca fascicularis; conditions: in vivo, read-out: beta t1/2 (converted)
[19] = Cmax in iv dosed cynomolgus monkey; assay type: ADME, organism-based, Macaca fascicularis; set-up: route intravenous; conditions: in vivo
[20] = Volume of distribution at steady-state in iv dosed cynomolgus monkey; assay type: ADME, organism-based, Macaca fascicularis; conditions: in vivo, read-out: Vdss
[21] = Total blood clearance in iv dosed cynomolgus monkey; assay type: ADME, organism-based, Macaca fascicularis; conditions: whole blood
[22] = Oral bioavailability in Beagle dog; assay type: ADME, organism-based, Canis lupus familiaris; conditions: in vivo
[23] = Terminal half life in po dosed Beagle dog; assay type: ADME, organism-based, Canis lupus familiaris; conditions: in vivo, read-out: beta t1/2 (converted)
[24] = Tmax in po dosed Beagle dog; assay type: ADME, organism-based, Canis lupus familiaris; conditions: in vivo
[25] = Ratio of drug level in brain to blood in human; assay type: ADME, tissue-based
[26] = Cmax in po dosed Beagle dog; assay type: ADME, organism-based, Canis lupus familiaris; set-up: route oral; conditions: in vivo
[27] = Cmax in iv dosed Beagle dog; assay type: ADME, organism-based, Canis lupus familiaris; set-up: route intravenous; conditions: in vivo
[28] = Terminal half life in iv dosed Beagle dog; assay type: ADME, organism-based, Canis lupus familiaris; conditions: in vivo, read-out: beta t1/2 (converted)
[29] = Volume of distribution at steady-state in iv dosed Beagle dog; assay type: ADME, organism-based, Canis lupus familiaris; conditions: in vivo, read-out: Vdss
[30] = Total blood clearance in iv dosed Beagle dog; assay type: ADME, organism-based, Canis lupus familiaris; conditions: whole blood
[31] = Oral bioavailability in Sprague-Dawley rat; assay type: ADME, organism-based; conditions: in vivo
[32] = Tmax in po dosed Sprague-Dawley rat; assay type: ADME, organism-based; conditions: in vivo
[33] = Terminal half life in po dosed Sprague-Dawley rat; assay type: ADME, organism-based; conditions: in vivo, read-out: beta t1/2 (converted)
[34] = Cmax in po dosed Sprague-Dawley rat; assay type: ADME, organism-based; set-up: route oral; conditions: in vivo
[35] = Ratio of drug level in brain to blood in iv dosed Sprague-Dawley rat; assay type: ADME, organism-based
[36] = Terminal half life in iv dosed Sprague-Dawley rat; assay type: ADME, organism-based; conditions: in vivo, read-out: beta t1/2 (converted)
[37] = Cmax in iv dosed Sprague-Dawley rat; assay type: ADME, organism-based; set-up: route intravenous; conditions: in vivo
[38] = Volume of distribution at steady-state in iv dosed Sprague-Dawley rat; assay type: ADME, organism-based; conditions: in vivo, read-out: Vdss
[39] = Total blood clearance in iv dosed Sprague-Dawley rat; assay type: ADME, organism-based; conditions: whole blood
[40] = Aqueous solubility of the compound; assay type: physicochemical
Histamine H3 receptor [41] = biological target: T2, Histamine H3 receptor; assay: Displacement of [3H]-R-alpha-ethylhistamine from human histamine H3 receptor expressed in HEK293 cells after 45 mins by liquid scintillation spectrometry
Histamine H3 receptor [42] = biological target: T2, Histamine H3 receptor; assay: Displacement of [3H]-R-alpha-ethylhistamine from histamine H3 receptor in human cerebral cortical tissue membranes after 45 mins by liquid scintillation spectrometry
[43] = Ratio of drug level in brain to blood in rat at 3 mg/kg, po; assay type: ADME, organism-based; set-up: dose 3 mg/kg, route oral
Rattus norvegicus [44] = assay: Ex vivo binding affinity to histamine H3 receptor in rat cerebral cortex using [3H]-R-alpha-ethylhistamine at 0.3 mg/kg, po after 3 hrs by HPLC analysis; assay type: functional

T1 sequence (Q9QYN8 whole entry): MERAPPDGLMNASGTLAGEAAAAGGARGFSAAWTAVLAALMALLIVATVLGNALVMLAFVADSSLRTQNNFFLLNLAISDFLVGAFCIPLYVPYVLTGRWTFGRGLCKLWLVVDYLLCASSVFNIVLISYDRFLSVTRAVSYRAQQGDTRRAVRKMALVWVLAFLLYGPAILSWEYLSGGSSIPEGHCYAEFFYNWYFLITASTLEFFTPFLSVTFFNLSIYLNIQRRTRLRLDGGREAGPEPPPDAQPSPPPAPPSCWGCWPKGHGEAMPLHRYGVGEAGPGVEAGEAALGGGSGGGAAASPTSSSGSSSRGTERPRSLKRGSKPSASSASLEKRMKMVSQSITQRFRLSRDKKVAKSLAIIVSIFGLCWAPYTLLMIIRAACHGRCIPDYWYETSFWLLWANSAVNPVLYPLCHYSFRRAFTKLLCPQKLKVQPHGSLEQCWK
T2 sequence (Q9Y5N1 whole entry): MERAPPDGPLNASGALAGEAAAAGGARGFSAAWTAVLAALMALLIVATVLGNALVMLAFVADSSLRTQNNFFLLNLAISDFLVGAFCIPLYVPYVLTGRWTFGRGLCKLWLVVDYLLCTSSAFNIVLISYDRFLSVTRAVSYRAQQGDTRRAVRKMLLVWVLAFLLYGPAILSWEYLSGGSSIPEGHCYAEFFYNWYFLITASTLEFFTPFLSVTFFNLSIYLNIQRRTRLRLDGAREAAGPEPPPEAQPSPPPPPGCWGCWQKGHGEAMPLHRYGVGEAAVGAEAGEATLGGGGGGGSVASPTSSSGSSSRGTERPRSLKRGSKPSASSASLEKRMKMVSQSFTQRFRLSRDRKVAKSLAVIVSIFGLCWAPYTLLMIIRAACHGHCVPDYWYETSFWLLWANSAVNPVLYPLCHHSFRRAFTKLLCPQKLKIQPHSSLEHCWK
hERG (KCNH2), sequence (Q12809 whole entry): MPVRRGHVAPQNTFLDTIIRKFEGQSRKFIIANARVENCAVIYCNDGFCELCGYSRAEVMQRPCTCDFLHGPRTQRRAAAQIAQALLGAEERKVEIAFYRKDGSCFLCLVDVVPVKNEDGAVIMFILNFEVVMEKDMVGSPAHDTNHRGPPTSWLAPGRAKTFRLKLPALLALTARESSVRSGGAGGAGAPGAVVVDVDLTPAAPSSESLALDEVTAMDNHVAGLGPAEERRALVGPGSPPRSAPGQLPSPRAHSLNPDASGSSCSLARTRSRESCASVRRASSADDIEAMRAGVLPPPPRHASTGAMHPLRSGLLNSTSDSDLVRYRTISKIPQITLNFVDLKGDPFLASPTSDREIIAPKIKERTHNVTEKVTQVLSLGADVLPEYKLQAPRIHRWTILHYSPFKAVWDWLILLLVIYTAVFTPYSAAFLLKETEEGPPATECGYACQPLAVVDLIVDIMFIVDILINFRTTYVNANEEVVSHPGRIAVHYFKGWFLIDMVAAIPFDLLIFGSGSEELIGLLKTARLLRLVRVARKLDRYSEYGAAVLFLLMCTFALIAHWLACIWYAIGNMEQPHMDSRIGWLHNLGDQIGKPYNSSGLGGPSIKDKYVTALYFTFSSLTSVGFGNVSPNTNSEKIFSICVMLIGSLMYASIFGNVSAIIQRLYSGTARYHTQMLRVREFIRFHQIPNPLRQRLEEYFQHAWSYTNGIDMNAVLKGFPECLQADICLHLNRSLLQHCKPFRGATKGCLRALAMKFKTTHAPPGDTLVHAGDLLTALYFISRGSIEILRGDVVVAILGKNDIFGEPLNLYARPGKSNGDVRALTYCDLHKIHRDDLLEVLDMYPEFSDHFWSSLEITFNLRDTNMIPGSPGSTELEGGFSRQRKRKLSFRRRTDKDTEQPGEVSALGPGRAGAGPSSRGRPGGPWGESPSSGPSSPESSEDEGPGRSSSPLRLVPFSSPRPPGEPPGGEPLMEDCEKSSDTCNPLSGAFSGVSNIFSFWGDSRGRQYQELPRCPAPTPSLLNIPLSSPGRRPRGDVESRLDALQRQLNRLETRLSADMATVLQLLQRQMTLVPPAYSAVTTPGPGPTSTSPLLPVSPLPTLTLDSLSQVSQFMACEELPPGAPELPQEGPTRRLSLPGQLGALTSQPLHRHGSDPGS
Histamine H4 receptor, sequence (Q9H3N8 whole entry): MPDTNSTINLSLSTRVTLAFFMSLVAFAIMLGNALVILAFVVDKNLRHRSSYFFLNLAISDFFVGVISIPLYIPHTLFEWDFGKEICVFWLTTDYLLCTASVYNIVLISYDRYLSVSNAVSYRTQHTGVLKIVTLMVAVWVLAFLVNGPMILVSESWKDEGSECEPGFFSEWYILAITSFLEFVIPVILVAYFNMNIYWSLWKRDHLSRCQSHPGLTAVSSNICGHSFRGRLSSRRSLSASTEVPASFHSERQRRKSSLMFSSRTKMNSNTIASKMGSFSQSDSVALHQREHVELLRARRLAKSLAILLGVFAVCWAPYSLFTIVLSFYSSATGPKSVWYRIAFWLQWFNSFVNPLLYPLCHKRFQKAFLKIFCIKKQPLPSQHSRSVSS
Histamine H2 receptor, sequence (P25021 whole entry): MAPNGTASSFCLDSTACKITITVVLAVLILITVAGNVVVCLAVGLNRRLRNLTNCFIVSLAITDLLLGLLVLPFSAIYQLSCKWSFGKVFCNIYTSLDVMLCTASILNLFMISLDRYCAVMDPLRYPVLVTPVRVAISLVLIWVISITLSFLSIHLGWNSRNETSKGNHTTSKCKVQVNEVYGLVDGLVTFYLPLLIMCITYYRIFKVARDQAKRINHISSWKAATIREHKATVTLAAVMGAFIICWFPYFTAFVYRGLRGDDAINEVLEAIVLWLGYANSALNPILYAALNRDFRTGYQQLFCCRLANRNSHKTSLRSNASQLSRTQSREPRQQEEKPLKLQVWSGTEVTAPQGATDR
Histamine H1 receptor, sequence (P35367 whole entry): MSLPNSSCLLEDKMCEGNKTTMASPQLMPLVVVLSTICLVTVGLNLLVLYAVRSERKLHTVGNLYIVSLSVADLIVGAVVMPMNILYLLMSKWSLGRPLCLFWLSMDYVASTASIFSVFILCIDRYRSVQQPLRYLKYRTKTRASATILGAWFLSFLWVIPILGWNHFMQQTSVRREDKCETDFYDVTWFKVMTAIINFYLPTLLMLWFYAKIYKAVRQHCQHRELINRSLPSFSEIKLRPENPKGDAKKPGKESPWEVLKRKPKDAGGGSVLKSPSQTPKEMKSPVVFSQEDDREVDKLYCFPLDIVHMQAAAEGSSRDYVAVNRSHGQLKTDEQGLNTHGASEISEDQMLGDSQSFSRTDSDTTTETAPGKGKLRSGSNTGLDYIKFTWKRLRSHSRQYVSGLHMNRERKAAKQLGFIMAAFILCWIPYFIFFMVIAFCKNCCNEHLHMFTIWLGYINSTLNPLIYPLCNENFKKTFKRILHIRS

CNC(=O)c1cnc(Oc2ccc3c(c2)CCN(C2CCC2)CC3)cn1
CLH (Liver microsome [1]): 1.2 mL/min/g | IC50 [2]: > 10000 nM | inhibition at 10 µM (hERG (KCNH2)): < 10% | Ki (Histamine H4 receptor): > 3160 nM | Ki (Histamine H1 receptor): 1580 nM | Ki (Histamine H2 receptor): > 3160 nM | Ki (Histamine H3 receptor [3]): 1.12 nM | CLH (Liver microsome [4]): 1.4 mL/min/g | ED50 (Rattus norvegicus [5]): 0.02 mg/kg | concentration (Blood): 1120 nM | Activity (Rattus norvegicus [6]): 82% | ED50 (Rattus norvegicus [7]): 0.04 mg/kg | Ki (Histamine H3 receptor [8]): 0.832 nM

NC(=O)c1ccc(Oc2ccc3c(c2)CCN(C2CCC2)CC3)nc1
CLH (Liver microsome [4]): < 3 mL/min/g | Activity (Rattus norvegicus [6]): 81% | Ki (Histamine H3 receptor [8]): 2 nM | Ki (Histamine H3 receptor [9]): 0.501 nM

O=C1CCCN1c1ccc(Oc2ccc3c(c2)CCN(C2CCC2)CC3)nc1 [GSK239512]
Activity (Rattus norvegicus [10]): Active | Activity (Rattus norvegicus [11]): Active | Activity (Rattus norvegicus [12]): Dose-dependent effect | bioavailability [13]: 55% | half-life [14]: 1.7 h | Tmax [15]: 1.3 h | EC50 (Rattus norvegicus [16]): 15 nM | Cmax [17]: 145 nM | half-life [18]: 1.7 h | Cmax [19]: 383 nM | Vd [20]: 3.2 L/kg | clearance [21]: 28 mL/min/kg | bioavailability [22]: 33% | half-life [23]: 1.8 h | Tmax [24]: 0.7 h | Kp [25]: 1.83 | Cmax [26]: 120 nM | Cmax [27]: 393 nM | half-life [28]: 1.7 h | Vd [29]: 2.8 L/kg | clearance [30]: 22 mL/min/kg | bioavailability [31]: 51% | Tmax [32]: 1 h | half-life [33]: 2.1 h | Cmax [34]: 348 nM | Kp [35]: 1.83 | half-life [36]: 1.2 h | Cmax [37]: 671 nM | Vd [38]: 3.1 L/kg | clearance [39]: 39 mL/min/kg | CLH (Liver microsome [1]): 0.6 mL/min/g | IC50 [2]: > 10000 nM | inhibition at 10 µM (hERG (KCNH2)): < 10% | solubility [40]: > 10000 µg/mL | Ki (Histamine H4 receptor): > 3160 nM | Ki (Histamine H1 receptor): 2510 nM | Ki (Histamine H2 receptor): > 3160 nM | Ki (Histamine H3 receptor [3]): 0.148 nM | Ki (Histamine H3 receptor [41]): 0.204 nM | CLH (Liver microsome [4]): 1.6 mL/min/g | Ki (Histamine H3 receptor [42]): 0.12 nM | ED50 (Rattus norvegicus [5]): 0.04 mg/kg | Kp [43]: 1 | concentration (Blood): 410 nM | Activity (Rattus norvegicus [6]): 95% | ED50 (Rattus norvegicus [7]): 0.08 mg/kg | Ki (Histamine H3 receptor [8]): 0.363 nM | Ki (Histamine H3 receptor [9]): 0.1 nM

c1cnc(Oc2ccc3c(c2)CCN(C2CCC2)CC3)cn1
Ki (Histamine H3 receptor [9]): 1.58 nM

CC1CCC(=O)N1c1ccc(Oc2ccc3c(c2)CCN(C2CCC2)CC3)nc1 (configuration not stated)
Activity (Rattus norvegicus [6]): 52% | Ki (Histamine H3 receptor [8]): 2.51 nM | Ki (Histamine H3 receptor [9]): 0.316 nM

Cc1noc(C)c1-c1ccc(Oc2ccc3c(c2)CCN(C2CCC2)CC3)nc1
Activity (Rattus norvegicus [6]): 48% | Ki (Histamine H3 receptor [8]): 2.51 nM | Ki (Histamine H3 receptor [9]): 0.501 nM

CNC(=O)c1ccc(Oc2ccc3c(c2)CCN(C2CCC2)CC3)cn1
ED50 (Rattus norvegicus [5]): 0.25 mg/kg | Kp [43]: 3.4 | concentration (Blood): 570 nM | Activity (Rattus norvegicus [6]): 82% | ED50 (Rattus norvegicus [7]): 0.43 mg/kg | Ki (Histamine H3 receptor [8]): 3.98 nM | Ki (Histamine H3 receptor [9]): 0.501 nM

c1cc(-c2ccc(Oc3ccc4c(c3)CCN(C3CCC3)CC4)nc2)[nH]n1
Activity (Rattus norvegicus [44]): 23% | Ki (Histamine H3 receptor [8]): 2.51 nM | Ki (Histamine H3 receptor [9]): 0.251 nM
